Usually Emax stands for the greatest response seen or fitted, relative to the assay's reference.

For one test, the target named is T1, M4 muscarinic receptor (Homo sapiens, UniProt P08173).
T1 construct: expressed in transfected cells; host or cells: CHO (M4-CHO)
T1 sequence (P08173 1-479): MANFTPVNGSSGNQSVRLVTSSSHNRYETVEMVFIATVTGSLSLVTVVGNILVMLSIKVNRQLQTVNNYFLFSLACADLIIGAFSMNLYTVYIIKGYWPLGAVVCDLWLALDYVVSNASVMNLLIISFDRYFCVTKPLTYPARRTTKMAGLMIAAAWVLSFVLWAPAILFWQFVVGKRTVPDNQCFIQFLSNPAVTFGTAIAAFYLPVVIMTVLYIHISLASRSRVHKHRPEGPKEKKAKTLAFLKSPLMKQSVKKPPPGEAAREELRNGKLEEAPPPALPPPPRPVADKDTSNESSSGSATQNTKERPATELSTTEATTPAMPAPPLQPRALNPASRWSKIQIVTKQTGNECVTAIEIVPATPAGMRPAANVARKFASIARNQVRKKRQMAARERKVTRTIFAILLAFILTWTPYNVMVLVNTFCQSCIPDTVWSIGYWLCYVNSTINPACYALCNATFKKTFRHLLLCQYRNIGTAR
Description: Functional mobilization of intracellular calcium (FLIPR), M4-CHO cells. The class given is cell-based. Conditions: for Emax: 100% efficacy is the maximum response obtained using Carbachol as a control; for M4 Activity: M4-CHO cells, FLIPR calcium mobilization. The gist of the method: (§1)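 CHO cells expressing M1 or M4, loaded with Fluo-3 AM or Calcium 3 dye with 1 mM probenecid, 0.5% DMSO final. Agonist mode: compound added directly; antagonist mode: 15 min pre-incubation (or co-application) before carbachol at EC80. Fluorescence recorded 60 s on FLIPR.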
On the technique in general: Calcium flux is commonly read through the fluorescence of an indicator in the cells.

A further test deals with T2, M1 muscarinic receptor (Homo sapiens, UniProt P11229).
T2 construct: expressed in transfected cells; host or cells: CHO (M1-CHO)
T2 sequence (P11229 1-460): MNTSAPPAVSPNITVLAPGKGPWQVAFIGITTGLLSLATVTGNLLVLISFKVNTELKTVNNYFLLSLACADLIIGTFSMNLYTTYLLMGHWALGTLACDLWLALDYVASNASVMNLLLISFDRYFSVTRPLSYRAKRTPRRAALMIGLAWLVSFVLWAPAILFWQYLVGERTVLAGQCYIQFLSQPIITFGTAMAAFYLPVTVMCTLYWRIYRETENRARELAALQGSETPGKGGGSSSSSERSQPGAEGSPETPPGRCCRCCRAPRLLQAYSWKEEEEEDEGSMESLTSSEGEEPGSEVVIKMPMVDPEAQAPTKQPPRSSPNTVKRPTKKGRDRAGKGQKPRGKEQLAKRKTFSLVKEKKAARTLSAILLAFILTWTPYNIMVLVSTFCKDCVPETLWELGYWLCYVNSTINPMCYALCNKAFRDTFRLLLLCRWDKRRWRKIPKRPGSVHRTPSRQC
Description: Functional mobilization of intracellular calcium (FLIPR), M1-CHO cells. The class given is cell-based. Conditions: for Emax: 100% efficacy is the maximum response obtained using Carbachol as a control; for M1 Activity: M1-CHO cells, FLIPR calcium mobilization. Summed up: as §1

Consider `CCOC(=O)N1CCC(N2CCC3(CC2)OC(=O)c2ccccc23)CC1` [compound 314, ethyl 4-(3-oxo-3H-spiro[isobenzofuran-1,4′-piperidine]-1′-yl)piperidine-1-carboxylate], for which, on M4 muscarinic receptor, the maximum response (Emax) fell in the range of 25 to 100% and the “M4 Activity” value was “+++ (activity was measured to be less than 1.0 μM)”. At M1 muscarinic receptor, the Emax was in the range of 25 to 100% and the “M1 Activity” value is on record as “+++ (activity was measured to be less than 1.0 μM)”.

Take `CCOC(=O)N1CCC(CN2CCC3(CC2)CN(C(=O)OC2CCC2)Cc2ccccc23)CC1` [compound 315]: at M4 muscarinic receptor, the Emax lay in the range of 25 to 100% and the “M4 Activity” value is listed as “+++ (activity was measured to be less than 1.0 μM)”. Also, at M1 muscarinic receptor, the Emax was 25 to 100% and the “M1 Activity” value is “+++ (activity was measured to be less than 1.0 μM)”.

With `CCOC(=O)N1C2CCC1CC(N1CCC3(CC1)CN(S(=O)(=O)c1cccs1)Cc1ccccc13)C2` (stereo not drawn) [compound 316], at M4 muscarinic receptor, the Emax fell in the range of 25 to 100% and the “M4 Activity” value is “+++ (activity was measured to be less than 1.0 μM)”. Also, at M1 muscarinic receptor, the Emax was 25 to 100% and the “M1 Activity” value is recorded as “+++ (activity was measured to be less than 1.0 μM)”.

`CC(C)OC(=O)N1C2CCC1CC(N1CCC3(CC1)CN(C(=O)N(C)C)Cc1ccccc13)C2` (stereo not drawn) [compound 317]: at M4 muscarinic receptor, the Emax is 25 to 100% and the “M4 Activity” value was “+++ (activity was measured to be less than 1.0 μM)”. Also, at M1 muscarinic receptor, the Emax was in the range of 25 to 100% and the “M1 Activity” value is “+++ (activity was measured to be less than 1.0 μM)”.

In the case of `CCOC(=O)N1C2CCC1CC(N1CCC3(CC1)CN(C(=O)c1ccno1)Cc1ccccc13)C2` (stereo not drawn) [compound 318], on M4 muscarinic receptor, the Emax was 25 to 100% and the “M4 Activity” value is “+++ (activity was measured to be less than 1.0 μM)”. On M1 muscarinic receptor, the Emax fell in the range of 25 to 100% and the “M1 Activity” value is “+++ (activity was measured to be less than 1.0 μM)”.

Regarding `CCOC(=O)N1C2CCC1CC(N1CCC3(CC1)CN(C(=O)C1CCC1)Cc1ccccc13)C2` (stereo not drawn) [compound 319], on M4 muscarinic receptor, the Emax fell in the range of 25 to 100% and the “M4 Activity” value is reported as “+++ (activity was measured to be less than 1.0 μM)”. At M1 muscarinic receptor, the Emax was 25 to 100% and the “M1 Activity” value is on record as “+++ (activity was measured to be less than 1.0 μM)”.

On to `CCOC(=O)N1CC[C@H](CN2CCC3(CC2)CN(C(C)=O)Cc2ccccc23)C1` [compound 320], for which, on M4 muscarinic receptor, the Emax is 25 to 100% and the “M4 Activity” value was “+++ (activity was measured to be less than 1.0 μM)”. Also, on M1 muscarinic receptor, the Emax fell in the range of 25 to 100% and the “M1 Activity” value was “+++ (activity was measured to be less than 1.0 μM)”.

Consider `CCOC(=O)N1C2CCC1CC(N1CCC3(CC1)CN(C(=O)NC1CCCC1)Cc1ccccc13)C2` (stereo not drawn) [compound 321], for which, on M4 muscarinic receptor, the Emax was in the range of 25 to 100% and the “M4 Activity” value is reported as “+++ (activity was measured to be less than 1.0 μM)”. Moreover, at M1 muscarinic receptor, the Emax was 25 to 100% and the “M1 Activity” value was “+++ (activity was measured to be less than 1.0 μM)”.

For the compound `CC(=O)N1Cc2ccccc2C2(CCN(Cc3ccccc3C#N)CC2)C1` [compound 322], on M4 muscarinic receptor, the Emax is below 25% and the “M4 Activity” value is given as “+ (activity was measured to be greater than 5.0 μM)”. Also, on M1 muscarinic receptor, the Emax is below 25% and the “M1 Activity” value is “+ (activity was measured to be greater than 5.0 μM)”.

As for `CSC(C)CCN1CCC2(CC1)NC(=O)c1ccccc12` (stereo not drawn) [compound 323], at M4 muscarinic receptor, the Emax was below 25% and the “M4 Activity” value is recorded as “+ (activity was measured to be greater than 5.0 μM)”. Further, on M1 muscarinic receptor, the Emax is below 25% and the “M1 Activity” value was “+ (activity was measured to be greater than 5.0 μM)”.

Turning to `CCOC(=O)N1C2CCC1CC(N1CCC3(CC1)CN(S(=O)(=O)c1cccc(F)c1)Cc1ccccc13)C2` (stereo not drawn) [compound 324], on M4 muscarinic receptor, the Emax was 25 to 100% and the “M4 Activity” value was “+++ (activity was measured to be less than 1.0 μM)”. Further, at M1 muscarinic receptor, the Emax is 25 to 100% and the “M1 Activity” value was “+++ (activity was measured to be less than 1.0 μM)”.

With `CCCC1CCC(N2CCC3(CC2)CN(C(C)=O)Cc2ccccc23)CC1` (stereo not drawn) [compound 326], on M4 muscarinic receptor, the Emax lay in the range of 25 to 100% and the “M4 Activity” value was “+++ (activity was measured to be less than 1.0 μM)”. In addition, on M1 muscarinic receptor, the Emax fell in the range of 25 to 100% and the “M1 Activity” value was “+++ (activity was measured to be less than 1.0 μM)”.

Consider `CN(C)C(=O)N1Cc2ccccc2C2(CCN(C3CC4CCC(C3)N4C(=O)OC3CCC3)CC2)C1` (stereo not drawn) [compound 327], for which, on M4 muscarinic receptor, the Emax fell in the range of 25 to 100% and the “M4 Activity” value is recorded as “+++ (activity was measured to be less than 1.0 μM)”. Also, at M1 muscarinic receptor, the Emax is 25 to 100% and the “M1 Activity” value is on record as “+++ (activity was measured to be less than 1.0 μM)”.

With `CCOC(=O)N1CCC(N2CCC3(CC2)CN(C(=O)c2snnc2C)Cc2ccccc23)CC1` [compound 328], at M4 muscarinic receptor, the Emax is 25 to 100% and the “M4 Activity” value is “+++ (activity was measured to be less than 1.0 μM)”. At M1 muscarinic receptor, the Emax was in the range of 25 to 100% and the “M1 Activity” value was “+++ (activity was measured to be less than 1.0 μM)”.

In the case of `CCOC(=O)N1CCC(CN2CCC3(CC2)CN(C(=O)c2cnon2)Cc2ccccc23)CC1` [compound 329], on M4 muscarinic receptor, the Emax was in the range of 25 to 100% and the “M4 Activity” value is reported as “+++ (activity was measured to be less than 1.0 μM)”. In addition, on M1 muscarinic receptor, the Emax fell in the range of 25 to 100% and the “M1 Activity” value is “+++ (activity was measured to be less than 1.0 μM)”.

On to `CCOC(=O)N1CCC(CN2CCC3(CC2)CN(C(=O)c2ccccn2)Cc2ccccc23)CC1` [compound 330], for which, on M4 muscarinic receptor, the Emax was in the range of 25 to 100% and the “M4 Activity” value was “+++ (activity was measured to be less than 1.0 μM)”. In addition, at M1 muscarinic receptor, the Emax was 25 to 100% and the “M1 Activity” value was “+++ (activity was measured to be less than 1.0 μM)”.

For `CC(=O)N1Cc2ccccc2C2(CCN(Cc3cc(C)ccc3F)CC2)C1` [compound 331], at M4 muscarinic receptor, the Emax is below 25% and the “M4 Activity” value was “+ (activity was measured to be greater than 5.0 μM)”. Moreover, on M1 muscarinic receptor, the Emax is below 25% and the “M1 Activity” value is reported as “+ (activity was measured to be greater than 5.0 μM)”.

In the case of `CC(=O)N1Cc2ccccc2C2(CCN(Cc3cccc(C)n3)CC2)C1` [compound 334], at M4 muscarinic receptor, the Emax is below 25% and the “M4 Activity” value is recorded as “+ (activity was measured to be greater than 5.0 μM)”. Besides, at M1 muscarinic receptor, the Emax is below 25% and the “M1 Activity” value is recorded as “+ (activity was measured to be greater than 5.0 μM)”.

In the case of `CC(=O)N1Cc2ccccc2C2(CCN(Cc3ccc(C(C)O)cc3)CC2)C1` (stereo not drawn) [compound 335], at M4 muscarinic receptor, the Emax was below 25% and the “M4 Activity” value was “+ (activity was measured to be greater than 5.0 μM)”. Also, at M1 muscarinic receptor, the Emax is below 25% and the “M1 Activity” value is “+ (activity was measured to be greater than 5.0 μM)”.

`CCOC(=O)N1CCC(N2CCC3(CC2)CN(S(=O)(=O)c2ccc(F)cc2)Cc2ccccc23)CC1` [compound 337]: at M4 muscarinic receptor, the Emax fell in the range of 25 to 100% and the “M4 Activity” value is “+++ (activity was measured to be less than 1.0 μM)”. For the same compound, at M1 muscarinic receptor, the Emax lay in the range of 25 to 100% and the “M1 Activity” value was “+++ (activity was measured to be less than 1.0 μM)”.

As for `CCOC(=O)N1CCC(N2CCC3(CC2)CN(C(=O)Oc2ccc(F)cc2)Cc2ccccc23)CC1` [compound 342], at M4 muscarinic receptor, the Emax was 25 to 100% and the “M4 Activity” value was “+++ (activity was measured to be less than 1.0 μM)”. At M1 muscarinic receptor, the Emax is 25 to 100% and the “M1 Activity” value is “+++ (activity was measured to be less than 1.0 μM)”.

Consider `CCOC(=O)N1C2CCC1CC(N1CCC3(CC1)CN(C(=O)N1CCCCC1)Cc1ccccc13)C2` (stereo not drawn) [compound 344], for which, on M4 muscarinic receptor, the Emax lay in the range of 25 to 100% and the “M4 Activity” value is “+++ (activity was measured to be less than 1.0 μM)”. Also, at M1 muscarinic receptor, the Emax fell in the range of 25 to 100% and the “M1 Activity” value is given as “+++ (activity was measured to be less than 1.0 μM)”.

On to `CCOC(=O)N1CCC(CN2CCC3(CC2)CN(S(=O)(=O)c2ccc(F)cc2)Cc2ccccc23)CC1` [compound 345], for which, at M4 muscarinic receptor, the Emax was in the range of 25 to 100% and the “M4 Activity” value was “+++ (activity was measured to be less than 1.0 μM)”. In addition, at M1 muscarinic receptor, the Emax lay within 25 to 100% and the “M1 Activity” value is reported as “+++ (activity was measured to be less than 1.0 μM)”.

`CC(C)(C)CCN1CCC2(CC1)NC(=O)c1ccccc12` [compound 346]: at M4 muscarinic receptor, the maximum response (Emax) lay within 25 to 100% and the “M4 Activity” value is “++ (activity was measured to be from 1.0 μM to 5.0 μM)”. On M1 muscarinic receptor, the maximum response (Emax) lay in the range of 25 to 100% and the “M1 Activity” value was “++ (activity was measured to be from 1.0 μM to 5.0 μM)”.

Source of the values: patent publication US7863449B2, “Modulators of muscarinic receptors” (Vertex Pharmaceuticals Incorporated, priority 2004, dated 2011).
